# From patent US20240103006A1 (Roche Diagnostics Operations, Inc., priority 2021, published 2024)
# Assay: UV-vis spectral properties / extinction coefficients in aqueous buffer
# Format: physicochemical
# Settings: merocyanine dyes, 25 mM HEPES pH 7.4, 1-24 μM
# Procedure: Absorption spectra were recorded on a Cary 50 UV-vis spectrometer from Varian. All measurements were performed in 1 cm UV-vis disposable cuvettes (BRAND semi-micro) and air-equilibrated solutions at 25±0.1° C. A total assay volume of 1.0 mL was used for each measurement. UV-vis scan spectra were recorded using following parameters: average time 0.05 s; data interval 1 nm; scan rate 1200 nm/min; with base line correction.
# Stock solutions of assayed compounds (2-5 mM) were prepared in H2O-DMSO (1:1), stored at −20° C., and diluted to 1.0 mM with buffer before use. The L-Cys stock solution (20.0 mM) was freshly prepared in buffer before the measurements. […]
# For a measurement, 1000 μL of buffer and 1-50 μL of probe (1.0 mM) were mixed, and then transferred to a cuvette. Absorbance spectra (250-800 nm) were measured against a blank of the buffer. At least six concentrations of each compound were used to calculate extinction coefficients from the slope of probe concentration vs absorbance plots, using MS Excel software (Microsoft).
ε at λmax,λmax,SMILES
36.6 mM⁻¹ cm⁻¹,527 nm,"CC1(C)C(/C=C/c2ccc(O)cc2)=[N+](CCCCS(=O)(=O)[O-])c2ccccc21 [LZ04, reference compound]"
27 to 37 mM⁻¹ cm⁻¹,520 nm,"C[N+]1=C(/C=C/c2ccc(O)cc2)C(C)(C)c2ccccc21.[I-] [LZ06, reference compound]"
73.9 mM⁻¹ cm⁻¹,550 nm,Cc1cc(/C=C/C2=[N+](CCCCS(=O)(=O)[O-])c3ccccc3C2(C)C)cc(C)c1O [MF51]
70.1 mM⁻¹ cm⁻¹,529 nm,COc1cc(O)ccc1/C=C/C1=[N+](CCCCS(=O)(=O)[O-])c2ccccc2C1(C)C [MF52]
65.3 mM⁻¹ cm⁻¹,548 nm,COc1cc(/C=C/C2=[N+](CCCCS(=O)(=O)[O-])c3ccccc3C2(C)C)ccc1O [MF53]
44.9 mM⁻¹ cm⁻¹,528 nm,CC1(C)C(/C=C/c2ccc(O)c(S(=O)(=O)[O-])c2)=[N+](CCCCS(=O)(=O)O)c2ccccc21 [MF54]
109.7 mM⁻¹ cm⁻¹,582 nm,CC1(C)C(/C=C/c2ccc(O)c3ccccc23)=[N+](CCCCS(=O)(=O)[O-])c2ccccc21 [MF56]
106.3 mM⁻¹ cm⁻¹,572 nm,CC1(C)C(/C=C/c2ccc(O)c3ncccc23)=[N+](CCCCS(=O)(=O)[O-])c2ccccc21 [MF57]
48.1 mM⁻¹ cm⁻¹,514 nm,CC1(C)C(/C=C/c2ccc(O)cc2S(=O)(=O)[O-])=[N+](CCCCS(=O)(=O)O)c2ccccc21 [MF58]
122.6 mM⁻¹ cm⁻¹,556 nm,Cc1cc(/C=C/C2=[N+](CCCS(=O)(=O)O)c3ccc(S(=O)(=O)[O-])cc3C2(C)C)cc(C)c1O [MF66]
67.4 mM⁻¹ cm⁻¹,546 nm,Cc1cc(/C=C/C2=[N+](C)c3ccccc3C2(C)C)cc(C)c1O [MF67]
70.0 mM⁻¹ cm⁻¹,575 nm,COc1cc(/C=C/C2=[N+](CCCCS(=O)(=O)[O-])c3ccccc3C2(C)C)cc(OC)c1O [MF68]

# Same assay, conditions: merocyanine dyes, same buffer at pH 8.0
ε at λmax,λmax,SMILES
45.6 mM⁻¹ cm⁻¹,527 nm,"CC1(C)C(/C=C/c2ccc(O)cc2)=[N+](CCCCS(=O)(=O)[O-])c2ccccc21 [LZ04, reference compound]"
37 to 53 mM⁻¹ cm⁻¹,520 nm,"C[N+]1=C(/C=C/c2ccc(O)cc2)C(C)(C)c2ccccc21.[I-] [LZ06, reference compound]"
138.6 mM⁻¹ cm⁻¹,556 nm,Cc1cc(/C=C/C2=[N+](CCCS(=O)(=O)O)c3ccc(S(=O)(=O)[O-])cc3C2(C)C)cc(C)c1O [MF66]
84.9 mM⁻¹ cm⁻¹,546 nm,Cc1cc(/C=C/C2=[N+](C)c3ccccc3C2(C)C)cc(C)c1O [MF67]

# Assay: not given
# Settings: solvent as listed per probe; cited from earlier work
SMILES,Spectra: Probe,Spectra: With Cys
C=CC(=O)OC1=C(/C=C/C2=[N+](CCC)c3ccccc3C2(C)C)CCC/C1=C\C=C1\N(CCC)c2ccccc2C1(C)C,775 nm,515 nm
C=CC(=O)Oc1ccc(/C=C/c2sc3ccccc3[n+]2CC)c2cccnc12,387 nm,566 nm
C=CC(=O)Oc1ccc2c(c1)OC1=C(/C=C/C3=[N+](C)c4ccccc4C3(C)C)CCCC1=C2,582 nm,674 nm
C=CC(=O)Oc1ccc(/C=C/c2cc[n+](C)cc2)cc1,335 nm,372 nm
C=CC(=O)Oc1ccc(/C=C/C2=CC(=C(C#N)C#N)c3ccccc3O2)cc1,381 nm,557 nm
C=CC(=O)Oc1ccc2c(c1)oc(=O)c1c(=O)oc3ccccc3c12,350 nm,445 nm
C=CC(=O)Oc1ccc2c(c1)Oc1c(ccc3oc(=O)c(C(=O)OCC)cc13)C21OC(=O)c2ccccc21 (stereo not drawn),332 nm,450 nm
C=CC(=O)Oc1ccc2cc(/C=C/C3=[N+](C)c4ccccc4C3(C)C)ccc2c1,409 nm,448 nm
C=CC(=O)Oc1ccc(/C=C/C(=O)/C=C(O)/C=C/c2ccc(OC(=O)C=C)c(OC)c2)cc1OC,400 nm,427 nm
C=CC(=O)Oc1cccc2c1C(=O)N(Cc1cccc[n+]1CC)C2=O,360 nm,400 nm
C=CC(=O)Oc1ccc2c(c1)OC1=C(/C=C/C3CC(=C(C#N)C#N)c4ccccc4O3)CCCC1=C2 (stereo not drawn),550 nm,600 nm
